Test results as given in paper PMC7403980, “Anti-Inflammatory Effects of the Novel PIM Kinase Inhibitor KMU-470 in RAW 264.7 Cells through the TLR4-NF-κB-NLRP3 Pathway” (International Journal of Molecular Sciences, 2020).

Key:
NO production = assay: LPS-induced NO production in RAW 264.7 cells (Griess reagent); format: cell-based, murine; conditions: KMU-470 1 μM 30 min pre-treatment, LPS 50, 200, 1000 ng/mL 24 h
Method: Figure 3 Inhibitory effect of KMU-470 on LPS-induced NO production and iNOS protein expression, and cell viability in RAW 264.7 cells. (A) The cells were pre-treated with KMU-470 at a concentration of 1 μM for 30 min and then treated with different concentrations of LPS for 24 h. Nitrite in the culture supernatant was collected and evaluated using Griess reagent. Absorbance was measured at 540 nm. *** p < 0.001, ** p < 0.01, * p < 0.05. (B) Cells are pre-treated with two different concentrations of KMU-470 (0.5 μM and 1 μM) for 30 min, followed by treatment with 1 μg/mL LPS for 24 h. β-actin was used as an internal control for Western blot analysis. (C) Image-J program was used to analyze the relative optical density of the iNOS band. (D) Cells were treated with various concentrations of KMU-470 for 24 h. The effects of KMU-470 on cell proliferation and morphological changes were observed by microscopy (X100). (E) The cell proliferation rate was determined by cell count using a trypan blue exclusion assay. *p < 0.05 (F) Effect of KMU-470 on cell viability was measured by XTT assay. *** p < 0.001.
The amount of nitrite accumulated in the cell culture medium was measured directly using a Griess reagent as an indicator of NO production. […] The OD was measured by spectrophotometer (BMG Labtech, Ortenberg, Germany) at 540 nm. […]

TLR4 = assay: LPS-induced TLR4 protein expression in RAW 264.7 cells (Western blot); format: cell-based, murine; conditions: KMU-470 0.5 and 1 μM 30 min, LPS 6 h
Method: Figure 4 Inhibitory effect of KMU-470 on LPS-induced TLR4 and MyD88 protein expression in RAW 264.7 cells. (A,B) Cells were pre-treated with 0.5 and 1 μM of KMU-470 for 30 min prior to LPS treatment. Then, total protein was isolated after 6 h exposure to LPS. The protein expression level of TLR4 and MyD88 were assessed using Western blot analysis. (C,D) The relative optical densities of TLR4 and MyD88 bands were analyzed by the Image-J program. *** p < 0.001.
RAW 264.7 cells were pre-treated with KMU-470 (0.5–1 μM/mL) for 24 h and stimulated with LPS (50 ng/mL) for 6 h. After stimulation, total cells were harvested, washed with PBS buffer, and then the total protein was extracted with a RIPA buffer (0.1 mM sodium orthovanadate, 137 mM NaCl, 15 mM EGTA, 0.1% Triton X-100, 25 mM MOPS, 15 mM MgCl2, 100 μM phenylmethylsulfonyl fluoride, and 20 μM leupeptin, adjusted to pH 7.2). The cell culture media supernatants were precipitated using TCA (trichloroacetic acid, protocol by Luis Sanchez 2001). A BCA protein assay kit (Thermo Scientific, Wilmington, USA) was used for the determination of the protein concentration. […] Immunoreactive proteins were detected using the ELC Western blot detection system kit (Millipore). Signal intensity was measured using the Chemi Image documentation system (Fusion Fx7, VILBER LOUTMAT). Protein expression levels were quantified using the Image J program.

For `CN(C)CCNc1cncc(-c2ccc3c(c2)/C(=C/c2cnc[nH]2)C(=O)N3)n1` [KMU-470, (Z)-3-((1H-Imidazol-5-yl)methylene)-5-(6-((2-(dimethylamino)ethyl)amino)pyrazin-2-yl)indolin-2-one], the “LPS-induced NO production” value (NO production) was “suppressed” and the “Up-regulation of TLR4 protein by LPS” value (TLR4) was “suppressed”.
